A value given as a limit tells only on which side of the number the result lay.

These results are taken from US20240116985A1, “STAPLED PEPTIDES AND METHODS THEREOF” (priority 2020, published 2024).

The target of assay [1] is T1, full-length beta-Catenin (Uniprot ID P35222) (Homo sapiens, UniProt P35222).
T1 construct: 10 nM full-length beta-Catenin (Uniprot ID P35222)
T1 sequence (P35222 1-781): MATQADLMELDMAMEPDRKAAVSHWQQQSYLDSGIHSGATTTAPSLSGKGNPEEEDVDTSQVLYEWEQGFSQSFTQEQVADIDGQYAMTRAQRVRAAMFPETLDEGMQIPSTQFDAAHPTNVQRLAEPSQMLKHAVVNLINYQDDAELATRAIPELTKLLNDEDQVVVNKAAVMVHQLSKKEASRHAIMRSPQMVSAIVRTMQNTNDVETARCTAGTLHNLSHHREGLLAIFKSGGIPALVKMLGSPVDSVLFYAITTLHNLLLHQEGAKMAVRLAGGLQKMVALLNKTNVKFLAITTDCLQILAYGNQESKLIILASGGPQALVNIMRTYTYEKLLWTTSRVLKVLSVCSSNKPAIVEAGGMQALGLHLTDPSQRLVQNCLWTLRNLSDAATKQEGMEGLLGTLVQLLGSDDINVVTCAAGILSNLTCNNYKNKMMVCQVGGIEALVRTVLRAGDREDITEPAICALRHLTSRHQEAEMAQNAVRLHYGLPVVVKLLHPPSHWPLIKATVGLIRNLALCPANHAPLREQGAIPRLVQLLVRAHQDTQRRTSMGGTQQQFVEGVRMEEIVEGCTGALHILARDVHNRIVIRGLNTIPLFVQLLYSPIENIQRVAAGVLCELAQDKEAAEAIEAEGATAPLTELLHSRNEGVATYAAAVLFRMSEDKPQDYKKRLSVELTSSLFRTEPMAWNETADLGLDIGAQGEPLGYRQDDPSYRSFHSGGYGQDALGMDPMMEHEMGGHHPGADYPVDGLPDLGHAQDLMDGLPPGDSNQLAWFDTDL
Description: Fluorescence polarization IC50 (beta-catenin / 5FAM-TCF4 10-53 competition). The class given is binding. To be noted: fluorescence polarization; read-out: beta-Catenin FP IC50. Background: Fluorescence polarisation rises when a labelled molecule tumbles more slowly, as on binding a larger partner.

Assay [2] addresses T2, beta-catenin/TCF4 engagement (Homo sapiens, UniProt P35222).
T2 construct: expressed in transfected cells; host or cells: HEK293
T2 sequence (P35222 1-781): T1 sequence (P35222 1-781)
Description: Nano-BRET target engagement assay (B-cat-Halo & TCF4-Luc in HEK293 cells). To be noted: absolute IC50; read-out: NanoBRET Abs IC50. It is filed as cell-based. A general note: Bioluminescence resonance energy transfer reports proximity on the nanometre scale.

By IC50 is commonly meant the concentration that inhibits the measured activity by half. As for `CC(=O)N1CCC[C@]12CC=CCCCC1(CCCC=CCCCOC(=O)N3CC[C@@](C(=O)N[C@@H](Cc4ccsc4)C(=O)N[C@@H](Cc4csc5ccccc45)C(=O)N[C@@H](CCC(N)=O)C(N)=O)(C3)NC(=O)[C@H](CC(N)=O)NC(=O)[C@H](Cc3ccccc3)NC(=O)[C@H](C)NC(=O)[C@H](C)NC(=O)[C@H](CCC(N)=O)NC(=O)[C@H](CC(N)=O)NC1=O)NC(=O)[C@H](CC(C)(C)C)NC(=O)[C@H](CC(=O)O)NC2=O` (stereo partly drawn) [I-1566, Ac-PL3-Asp-Npg-B5-Asn-Gln-Ala-Ala-Phe-Asn-PyrS2-3Thi-BztA-Gln-NH2], the half-maximal inhibitory concentration (IC50) in assay [1] was 231 nM; in assay [2] it was greater than 20000 nM.
In the same order, the values of `CC(=O)N1CCC[C@]12CC=CCCCC1(CCCC=CCCCOC(=O)N3CC[C@@](C(=O)N[C@@H](Cc4ccsc4)C(=O)N[C@@H](Cc4csc5ccccc45)C(=O)N[C@@H](CCC(N)=O)C(N)=O)(C3)NC(=O)[C@H](CC(N)=O)NC(=O)[C@H](Cc3ccccc3)NC(=O)[C@H](C)NC(=O)[C@H](C)NC(=O)[C@H](CCC(N)=O)NC(=O)[C@H](CC(N)=O)NC1=O)NC(=O)[C@H](CC(C)(C)C)NC(=O)[C@H](CC(=O)O)NC2=O` (stereo partly drawn) [I-1567, Ac-PL3-Asp-Npg-B5-Asn-Gln-Ala-Ala-Phe-Asn-PyrS2-3Thi-BztA-Gln-NH2] are 182 nM and greater than 20000 nM.
As to `CC(=O)N1CCC[C@]12CC=CCCCC1(CCCC=CCCCOC(=O)N3CC[C@@](C(=O)N[C@@H](Cc4ccccc4Cl)C(=O)N[C@@H](Cc4csc5ccccc45)C(=O)N[C@@H](CCC(N)=O)C(N)=O)(C3)NC(=O)[C@H](CC(N)=O)NC(=O)[C@H](Cc3ccccc3)NC(=O)[C@H](C)NC(=O)[C@H](C)NC(=O)[C@H](CNCC(=O)O)NC(=O)[C@H](CC(=O)O)NC1=O)NC(=O)[C@H](CC(C)(C)C)NC(=O)[C@H](CC(=O)O)NC2=O` (stereo partly drawn) [I-1572, Ac-PL3-Asp-Npg-B5-Asp-GA-Ala-Ala-Phe-Asn-PyrS2-2C1F-BztA-Gln-NH2], the results for the half-maximal inhibitory concentration (IC50) in assay [1] and in assay [2] were 20 nM and greater than 20000 nM, respectively.
For `C[C@@H]1NC(=O)[C@H](C)NC(=O)[C@H](CC(=O)O)NC(=O)[C@H](CC(=O)O)NC(=O)C2(CCCC=CCCCOC(=O)N3CC[C@@](C(=O)N[C@@H](Cc4ccsc4)C(=O)N[C@@H](Cc4csc5ccccc45)C(=O)N[C@@H](CCC(N)=O)C(N)=O)(C3)NC(=O)[C@H](CC(N)=O)NC(=O)[C@H](Cc3ccccc3)NC1=O)CCCC=CCCC(=O)OC1CC(C(=O)N[C@@H](CC(=O)O)C(=O)N[C@@H](CC(C)(C)C)C(=O)N2)N(S(C)(=O)=O)C1` (stereo partly drawn) [I-1574, MeSO2-HypEs5-Asp-Npg-B5-Asp-Asp-Ala-Ala-Phe-Asn-PyrS2-3Thi-BztA-Gln-NH2], in that order: 15 nM and greater than 20000 nM.
In the same order, the values of `CC(=O)N1CCC[C@]12CC=CCCCC1(CCCC=CCCCOC(=O)N3CC[C@@](C(=O)N[C@@H](Cc4ccsc4)C(=O)N[C@@H](Cc4csc5ccccc45)C(=O)N[C@@H](CCC(N)=O)C(N)=O)(C3)NC(=O)[C@H](CC(N)=O)NC(=O)[C@H](Cc3ccccc3)NC(=O)[C@H](C)NC(=O)[C@H](C)NC(=O)[C@H](Cc3cccc(-c4nnn[nH]4)c3)NC(=O)[C@H](CC(=O)O)NC1=O)NC(=O)[C@H](CC(C)(C)C)NC(=O)[C@H](CC(=O)O)NC2=O` (stereo partly drawn) [I-1578, Ac-PL3-Asp-Npg-B5-Asp-3TzF-Ala-Ala-Phe-Asn-PyrS2-3Thi-BztA-Gln-NH2] are 11 nM and greater than 20000 nM.
Consider `CC(=O)N1CCC[C@]12CC=CCCCC1(CCCC=CCCCOC(=O)N3CC[C@@](C(=O)N[C@@H](Cc4ccsc4)C(=O)N[C@@H](Cc4csc5ccccc45)C(=O)N[C@@H](CCC(N)=O)C(N)=O)(C3)NC(=O)[C@H](CC(N)=O)NC(=O)[C@H](Cc3ccccc3)NC(=O)[C@H](C)NC(=O)[C@H](C)NC(=O)[C@H](Cc3ccc(-c4nnn[nH]4)cc3)NC(=O)[C@H](CC(=O)O)NC1=O)NC(=O)[C@H](CC(C)(C)C)NC(=O)[C@H](CC(=O)O)NC2=O` (stereo partly drawn) [I-1579, Ac-PL3-Asp-Npg-B5-Asp-4TzF-Ala-Ala-Phe-Asn-PyrS2-3Thi-BztA-Gln-NH2], for which the IC50 in assay [1] was 39 nM; in assay [2], greater than 20000 nM.
Regarding `CC(=O)N1CCC[C@]12CC=CCCCC1(CCCC=CCCCOC(=O)N3CC[C@@](C(=O)N[C@@H](Cc4ccccc4)C(=O)N[C@@H](Cc4csc5ccccc45)C(=O)N[C@@H](CCC(N)=O)C(N)=O)(C3)NC(=O)[C@H](CC(N)=O)NC(=O)[C@H](Cc3ccccc3)NC(=O)[C@H](C)NC(=O)[C@H](CCCCNC(C)C)NC(=O)[C@H]([C@@H](C)O)NC(=O)[C@H](CC(=O)O)NC1=O)NC(=O)[C@H](CC(C)(C)C)NC(=O)[C@H](CC(N)=O)NC2=O` (stereo partly drawn) [I-1602, Ac-PL3-Asn-Npg-B5-Asp-Thr-iPrLys-Ala-Phe-Asn-PyrS2-Phe-BztA-Gln-NH2], the IC50 was 362 nM in assay [1] and greater than 20000 nM in assay [2].
Turning to `CC(=O)N1CCC[C@]12CC=CCCCC1(CCCC=CCCCOC(=O)N3CC[C@@](C(=O)N[C@@H](Cc4ccccc4Cl)C(=O)N[C@@H](Cc4csc5ccccc45)C(=O)N[C@@H](CCCN4CCC(F)(F)CC4)C(N)=O)(C3)NC(=O)[C@H]([C@@H](C)O)NC(=O)[C@H](Cc3ccccc3)NC(=O)[C@H](C)NC(=O)[C@H](C)NC(=O)[C@H](CN(CC(=O)O)CC(F)(F)F)NC(=O)[C@H](CC(=O)O)NC1=O)NC(=O)[C@H](CC(C)(C)C)NC(=O)[C@H](CC(=O)O)NC2=O` (stereo partly drawn) [I-1607, Ac-PL3-Asp-Npg-B5-Asp-TfeGA-Ala-Ala-Phe-Thr-PyrS2-2C1F-BztA-F2PipNva-NH2], the figures for the concentration for half-maximal inhibition (IC50) in assay [1] and in assay [2] were 49 nM and 11900 nM, respectively.
As to `CC(=O)N1CCC[C@]12CC=CCCCC1(CCCC=CCCCOC(=O)N3CC[C@@](C(=O)N[C@@H](Cc4ccccc4C(F)(F)F)C(=O)N[C@@H](Cc4csc5ccccc45)C(=O)N[C@@H](CCCN4CCC(F)(F)CC4)C(N)=O)(C3)NC(=O)[C@H](CC(C)C)NC(=O)[C@H](Cc3ccccc3)NC(=O)[C@H](C)NC(=O)[C@H](C)NC(=O)[C@H](Cc3cccc(C(=O)O)c3)NC(=O)[C@H](CC(=O)O)NC1=O)NC(=O)[C@H](CC(C)(C)C)NC(=O)[C@H](CC(=O)O)NC2=O` (stereo partly drawn) [I-1608, Ac-PL3-Asp-Npg-B5-Asp-3COOHF-Ala-Ala-Phe-Leu-PyrS2-2F3MeF-BztA-F2PipNva-NH2], the values for the IC50 in assay [1] and in assay [2] were 76 nM and 15100 nM, respectively.
With `CC(=O)N1CCC[C@]12CC=CCCCC1(CCCC=CCCCOC(=O)N3CC[C@@](C(=O)N[C@@H](Cc4ccccc4Cl)C(=O)N[C@@H](Cc4csc5ccccc45)C(=O)N[C@@H](CCCN4CCOCC4)C(N)=O)(C3)NC(=O)[C@H]([C@@H](C)O)NC(=O)[C@H](Cc3ccccc3)NC(=O)[C@H](C)NC(=O)[C@H](C)NC(=O)[C@H](CN(CC(=O)O)CC(F)(F)F)NC(=O)[C@H](CC(=O)O)NC1=O)NC(=O)[C@H](CC(C)(C)C)NC(=O)[C@H](CC(=O)O)NC2=O` (stereo partly drawn) [I-1609, Ac-PL3-Asp-Npg-B5-Asp-TfeGA-Ala-Ala-Phe-Thr-PyrS2-2C1F-BztA-MorphNva-NH2], the concentration for half-maximal inhibition (IC50) in assay [1] came to 15 nM; in assay [2], 6700 nM.
For the compound `CC(=O)N1CCC[C@]12CC=CCCCC1(CCCC=CCCCOC(=O)N3CC[C@@](C(=O)N[C@@H](Cc4ccccc4C(F)(F)F)C(=O)N[C@@H](Cc4csc5ccccc45)C(=O)N[C@@H](CCCN4CCOCC4)C(N)=O)(C3)NC(=O)[C@H](CC(C)C)NC(=O)[C@H](Cc3ccccc3)NC(=O)[C@H](C)NC(=O)[C@H](C)NC(=O)[C@H](Cc3cccc(C(=O)O)c3)NC(=O)[C@H](CC(=O)O)NC1=O)NC(=O)[C@H](CC(C)(C)C)NC(=O)[C@H](CC(=O)O)NC2=O` (stereo partly drawn) [I-1610, Ac-PL3-Asp-Npg-B5-Asp-3COOHF-Ala-Ala-Phe-Leu-PyrS2-2F3MeF-BztA-MorphNva-NH2], the results for the IC50 in assay [1] and in assay [2] were 19 nM and 4100 nM, respectively.
In the same order, the values of `CC(=O)N1CCC[C@]12CC=CCCCC1(CCCC=CCCCOC(=O)N3CC[C@@](C(=O)N[C@@H](Cc4ccccc4Cl)C(=O)N[C@@H](Cc4csc5ccccc45)C(=O)N[C@@H](CC(=O)N4CCN(C)CC4)C(N)=O)(C3)NC(=O)[C@H]([C@@H](C)O)NC(=O)[C@H](Cc3ccccc3)NC(=O)[C@H](C)NC(=O)[C@H](C)NC(=O)[C@H](CN(CC(=O)O)CC(F)(F)F)NC(=O)[C@H](CC(=O)O)NC1=O)NC(=O)[C@H](CC(C)(C)C)NC(=O)[C@H](CC(=O)O)NC2=O` (stereo partly drawn) [I-1611, Ac-PL3-Asp-Npg-B5-Asp-TfeGA-Ala-Ala-Phe-Thr-PyrS2-2C1F-BztA-MePpzAsn-NH2] are 10 nM and 9800 nM.
Consider `CC(=O)N1CCC[C@]12CC=CCCCC1(CCCC=CCCCOC(=O)N3CC[C@@](C(=O)N[C@@H](Cc4ccccc4Cl)C(=O)N[C@@H](Cc4csc5ccccc45)C(=O)N[C@@H](CC(=O)N4CCOCC4)C(N)=O)(C3)NC(=O)[C@H]([C@@H](C)O)NC(=O)[C@H](Cc3ccccc3)NC(=O)[C@H](C)NC(=O)[C@H](C)NC(=O)[C@H](CN(CC(=O)O)CC(F)(F)F)NC(=O)[C@H](CC(=O)O)NC1=O)NC(=O)[C@H](CC(C)(C)C)NC(=O)[C@H](CC(=O)O)NC2=O` (stereo partly drawn) [I-1613, Ac-PL3-Asp-Npg-B5-Asp-TfeGA-Ala-Ala-Phe-Thr-PyrS2-2C1F-BztA-MorphAsn-NH2], for which the concentration for half-maximal inhibition (IC50) worked out at 9 nM in assay [1] and 5200 nM in assay [2].
